Results from patent US20250215029A1 (Recludix Pharma, Inc., priority 2022, published 2025).

Key:
[1] = target: T1, Recombinant STAT3 protein (STAT3 (G127-I722)) (Homo sapiens, UniProt P40763); test: STAT3 Fluorescence Polarization (FP) Assay; format: binding; conditions: STAT3 (G127-I722) 25 nM, probe 5-FAM-GpYLPQTV-NH2 2 nM, 45-minute incubation; read-out: STAT3 (FP assay IC50 class)
T1 construct: Recombinant STAT3 protein (STAT3 (G127-I722))
In short: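 In this competition FP format, STAT3 residues G127-I722 (25 nM) and 2 nM 5-FAM-GpYLPQTV-NH2 met test compounds for 45 min at room temperature. IC50 values result from fitting mP signal against log concentration by nonlinear regression.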

[2] = target: T2, Recombinant STAT6 protein (STAT6 (W123-T658)) (Homo sapiens, UniProt P42226); test: STAT6 Fluorescence Polarization (FP) Assay; format: binding; conditions: STAT6 (W123-T658) 250 nM, probe 5-FAM-Ap[…]-NH2 2 nM, 45-minute incubation; read-out: STAT6 (FP assay IC50 class)
T2 construct: Recombinant STAT6 protein (STAT6 (W123-T658))
T2 sequence (P42226 123-658): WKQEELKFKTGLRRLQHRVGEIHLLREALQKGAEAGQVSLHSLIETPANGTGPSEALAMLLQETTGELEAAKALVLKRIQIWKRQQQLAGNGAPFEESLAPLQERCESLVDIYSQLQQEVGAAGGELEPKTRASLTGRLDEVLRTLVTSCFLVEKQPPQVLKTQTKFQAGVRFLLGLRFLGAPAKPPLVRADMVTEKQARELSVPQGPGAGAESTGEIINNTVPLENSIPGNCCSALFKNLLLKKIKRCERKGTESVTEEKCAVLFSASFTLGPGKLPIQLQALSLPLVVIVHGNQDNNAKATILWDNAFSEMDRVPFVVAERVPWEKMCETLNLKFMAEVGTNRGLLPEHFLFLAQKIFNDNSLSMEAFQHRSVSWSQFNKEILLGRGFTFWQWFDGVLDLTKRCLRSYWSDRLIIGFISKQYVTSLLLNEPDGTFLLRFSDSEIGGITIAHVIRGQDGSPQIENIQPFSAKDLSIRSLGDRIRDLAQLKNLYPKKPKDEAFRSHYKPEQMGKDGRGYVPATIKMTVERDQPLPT
In short: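 Recombinant STAT6 (W123-T658) at 250 nM mixed with 2 nM 5-FAM phosphotyrosine peptide probe in HEPES pH 7.4 buffer with DTT, 1% DMSO final, added to serially diluted compounds. FP (mP) read after 45 min at room temperature; IC50 by nonlinear regression vs log concentration.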

T1 sequence (P40763 127-722): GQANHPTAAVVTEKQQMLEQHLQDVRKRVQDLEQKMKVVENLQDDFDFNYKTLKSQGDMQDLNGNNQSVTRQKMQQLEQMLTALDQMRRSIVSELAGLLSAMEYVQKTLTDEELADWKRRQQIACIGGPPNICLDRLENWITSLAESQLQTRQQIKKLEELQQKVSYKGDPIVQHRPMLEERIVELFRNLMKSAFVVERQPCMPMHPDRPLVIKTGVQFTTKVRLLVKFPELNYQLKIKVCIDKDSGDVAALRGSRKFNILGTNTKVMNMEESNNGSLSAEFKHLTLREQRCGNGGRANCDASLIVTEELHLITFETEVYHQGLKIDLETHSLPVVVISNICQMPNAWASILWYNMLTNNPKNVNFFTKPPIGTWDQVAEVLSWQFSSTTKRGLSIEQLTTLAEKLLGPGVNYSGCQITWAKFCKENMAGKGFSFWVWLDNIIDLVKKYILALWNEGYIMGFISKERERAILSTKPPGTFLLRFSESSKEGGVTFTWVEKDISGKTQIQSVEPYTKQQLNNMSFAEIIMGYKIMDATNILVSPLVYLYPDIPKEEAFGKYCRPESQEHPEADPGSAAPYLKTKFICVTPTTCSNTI

| SMILES | IC50 [1] | IC50 [2] |
| --- | --- | --- |
| C/C1=C/[C@H]2CC[C@@H](C(=O)N3CC(c4ccccc4)CC34CC4)N2C(=O)[C@@H](NC(=O)c2ccc3ccc(CP(=O)(O)O)cc3c2)CC1 (stereo partly drawn) [Compound 885, ((7-(((3S,6S,10aR,Z)-9-methyl-5-oxo-3-(6-phenyl-4-azaspiro[2.4]heptane-4-carbonyl)-1,2,3,5,6,7,8,10a-octahydropyrrolo[1,2-a]azocin-6-yl)carbamoyl)naphthalen-2-yl)methyl) phosphonic acid] | 1000 to 10000 nM | 300 to 3000 nM |
| C[C@@H]1CC[C@H](NC(=O)c2ccc3ccc(CP(=O)(O)O)cc3c2)C(=O)N2[C@H](CC[C@H]2C(=O)N2CC(c3ccccc3)CC23CC3)C1 (stereo partly drawn) [Compound 887, ((7-(((3S,6S,9R,10aR)-9-methyl-5-oxo-3-(6-phenyl-4-azaspiro[2.4]heptane-4-carbonyl)decahydropyrrolo[1,2-a]azocin-6-yl)carbamoyl)naphthalen-2-yl)methyl) phosphonic acid] | 1000 to 10000 nM | 300 to 3000 nM |
| C[C@H]1CC[C@H](NC(=O)c2ccc3ccc(CP(=O)(O)O)cc3c2)C(=O)N2[C@H](CC[C@H]2C(=O)N2CC(c3ccccc3)CC23CC3)C1 (stereo partly drawn) [Compound 888, ((7-(((3S,6S,9S,10aR)-9-methyl-5-oxo-3-(6-phenyl-4-azaspiro[2.4]heptane-4-carbonyl)decahydropyrrolo[1,2-a]azocin-6-yl)carbamoyl)naphthalen-2-yl)methyl) phosphonic acid] | 1000 to 10000 nM | 300 to 3000 nM |
| O=C(N[C@H]1CCCC[C@H]2CC[C@@H](C(=O)N3CC(c4cccnc4)CC34CC4)N2C1=O)c1ccc2ccc(C(F)P(=O)(O)O)cc2c1 (stereo partly drawn) [Compound 891, (fluoro(7-(((3S,6S,10aS)-5-oxo-3-(6-(pyridin-3-yl)-4-azaspiro[2.4]heptane-4-carbonyl)decahydropyrrolo[1,2-a]azocin-6-yl)carbamoyl)naphthalen-2-yl)methyl) phosphonic acid] | 1000 to 10000 nM | ≤ 300 nM |
| O=C(N[C@H]1CCCC[C@H]2CC[C@@H](C(=O)N3CCC(c4cccnc4)C3)N2C1=O)c1ccc2ccc(C(F)P(=O)(O)O)cc2c1 (stereo partly drawn) [Compound 892, (fluoro(7-(((3S,6S,10aS)-5-oxo-3-(3-(pyridin-3-yl)pyrrolidine-1-carbonyl)decahydropyrrolo[1,2-a]azocin-6-yl)carbamoyl)naphthalen-2-yl)methyl) phosphonic acid] | 1000 to 10000 nM | 300 to 3000 nM |
| O=C(N[C@H]1CCCC[C@H]2CC[C@@H](C(=O)N3C(=O)N(c4cccnc4)C(=O)C34CC4)N2C1=O)c1ccc2ccc(CP(=O)(O)O)cc2c1 [Compound 893, ((7-(((3S,6S,10aS)-3-(5,7-dioxo-6-(pyridin-3-yl)-4,6-diazaspiro[2.4]heptane-4-carbonyl)-5-oxodecahydropyrrolo[1,2-a]azocin-6-yl)carbamoyl)naphthalen-2-yl)methyl) phosphonic acid] | 1000 to 10000 nM | 300 to 3000 nM |
| O=C(N[C@H]1CCCC[C@H]2CC[C@@H](C(=O)N3CC(c4ccccc4)CC34CC4)N2C1=O)c1cnc2ccc(CP(=O)(O)O)cc2c1 (stereo partly drawn) [Compound 895, ((3-(((3S,6S,10aS)-5-oxo-3-(6-phenyl-4-azaspiro[2.4]heptane-4-carbonyl)decahydropyrrolo[1,2-a]azocin-6-yl)carbamoyl)quinolin-6-yl)methyl) phosphonic acid] | 1000 to 10000 nM | 300 to 3000 nM |
| CC(c1ccc2sc(C(=O)N[C@H]3CCC[C@H]4CC[C@@H](C(=O)N5CC(c6cccnc6)C5)N4C3=O)cc2c1)P(=O)(O)O (stereo partly drawn) [Compound 896, (1-(2-(((3S,6S,9aS)-5-oxo-3-(3-(pyridin-3-yl)azetidine-1-carbonyl)octahydro-1H-pyrrolo[1,2-a]azepin-6-yl)carbamoyl)benzo [b]thiophen-5-yl)ethyl) phosphonic acid] | 100 to 1000 nM | 3000 to 30000 nM |
| Cn1ccc(C2CN(C(=O)[C@@H]3CC[C@@H]4CCCC[C@H](NC(=O)c5cc6cc(C(F)P(=O)(O)O)ccc6s5)C(=O)N43)C3(CC3)C2)cc1=O (stereo partly drawn) [Compound 898, (fluoro(2-(((3S,6S,10aS)-3-(6-(1-methyl-2-oxo-1,2-dihydropyridin-4-yl)-4-azaspiro[2.4]heptane-4-carbonyl)-5-oxodecahydropyrrolo [1,2-a]azocin-6-yl)carbamoyl)benzo [b]thiophen-5-yl)methyl) phosphonic acid] | 1000 to 10000 nM | ≤ 300 nM |
| Cn1ccc(C2CCN(C(=O)[C@@H]3CC[C@@H]4CCCC[C@H](NC(=O)c5ccc6ccc(C(F)P(=O)(O)O)cc6c5)C(=O)N43)C2)cc1=O (stereo partly drawn) [Compound 899, (fluoro(7-(((3S,6S,10aS)-3-(3-(1-methyl-2-oxo-1,2-dihydropyridin-4-yl)pyrrolidine-1-carbonyl)-5-oxodecahydropyrrolo [1,2-a]azocin-6-yl)carbamoyl)naphthalen-2-yl)methyl) phosphonic acid] | 1000 to 10000 nM | 300 to 3000 nM |
| O=C(N[C@H]1CCCC[C@H]2CC[C@@H](C(=O)N3C(=O)N(c4cccnc4)C(=O)C34CC4)N2C1=O)c1cc2cc(C(F)P(=O)(O)O)ccc2s1 (stereo partly drawn) [Compound 900, ((2-(((3S,6S,10aS)-3-(5,7-dioxo-6-(pyridin-3-yl)-4,6-diazaspiro[2.4]heptane-4-carbonyl)-5-oxodecahydropyrrolo [1,2-a]azocin-6-yl)carbamoyl)benzo [b]thiophen-5-yl)fluoromethyl) phosphonic acid] | 1000 to 10000 nM | ≤ 300 nM |
| Cn1ncc(C2CCN(C(=O)[C@@H]3CC[C@@H]4CCCC[C@H](NC(=O)c5ccc6ccc(C(F)P(=O)(O)O)cc6c5)C(=O)N43)C2)cc1=O (stereo partly drawn) [Compound 902, (fluoro(7-(((3S,6S,10aS)-3-(3-(1-methyl-6-oxo-1,6-dihydropyridazin-4-yl)pyrrolidine-1-carbonyl)-5-oxodecahydropyrrolo [1,2-a]azocin-6-yl)carbamoyl)naphthalen-2-yl)methyl) phosphonic acid] | 1000 to 10000 nM | 3000 to 30000 nM |
| Cn1ccc(C2(F)CCN(C(=O)[C@@H]3CC[C@@H]4CCCC[C@H](NC(=O)c5ccc6ccc(C(F)P(=O)(O)O)cc6c5)C(=O)N43)C2)cc1=O (stereo partly drawn) [Compound 903, (fluoro(7-(((3S,6S,10aS)-3-(3-fluoro-3-(1-methyl-2-oxo-1,2-dihydropyridin-4-yl)pyrrolidine-1-carbonyl)-5-oxodecahydropyrrolo [1,2-a]azocin-6-yl)carbamoyl)naphthalen-2-yl)methyl) phosphonic acid] | 1000 to 10000 nM | 300 to 3000 nM |
| O=C(N[C@H]1CCC[C@H]2CC[C@@H](C(=O)N3CC(c4cccnc4)CC34CC4)N2C1=O)c1ccc2ccc(C(F)P(=O)(O)O)cc2c1 (stereo partly drawn) [Compound 904, (fluoro(7-(((3S,6S,9aS)-5-oxo-3-(6-(pyridin-3-yl)-4-azaspiro[2.4]heptane-4-carbonyl)octahydro-1H-pyrrolo[1,2-a]azepin-6-yl)carbamoyl)naphthalen-2-yl)methyl) phosphonic acid] | 1000 to 10000 nM | 300 to 3000 nM |
| O=C(N[C@H]1CCCC[C@H]2CC[C@@H](C(=O)N3CCC(c4ccn(C5CC5)c(=O)c4)C3)N2C1=O)c1ccc2ccc(C(F)P(=O)(O)O)cc2c1 (stereo partly drawn) [Compound 906, ((7-(((3S,6S,10aS)-3-(3-(1-cyclopropyl-2-oxo-1,2-dihydropyridin-4-yl)pyrrolidine-1-carbonyl)-5-oxodecahydropyrrolo[1,2-a]azocin-6-yl)carbamoyl)naphthalen-2-yl)fluoromethyl) phosphonic acid] | 1000 to 10000 nM | 300 to 3000 nM |
| O=C(N[C@H]1CCC[C@H]2CC[C@@H](C(=O)N3CC(c4cccnc4)CC34CC4)N2C1=O)c1cc2cc(C(F)P(=O)(O)O)ccc2s1 (stereo partly drawn) [Compound 907, (fluoro(2-(((3S,6S,9aS)-5-oxo-3-(6-(pyridin-3-yl)-4-azaspiro[2.4]heptane-4-carbonyl)octahydro-1H-pyrrolo[1,2-a]azepin-6-yl)carbamoyl)benzo [b]thiophen-5-yl)methyl) phosphonic acid] | 1000 to 10000 nM | ≤ 300 nM |
| O=C(N[C@H]1CCCC[C@H]2CC[C@@H](C(=O)N3CC(c4cccnc4)CC34CC4)N2C1=O)c1cc2cc(C(F)P(=O)(O)O)ccc2s1 (stereo partly drawn) [Compound 912, (fluoro(2-(((3S,6S,10aS)-5-oxo-3-(6-(pyridin-3-yl)-4-azaspiro[2.4]heptane-4-carbonyl)decahydropyrrolo[1,2-a]azocin-6-yl)carbamoyl)benzo [b]thiophen-5-yl)methyl) phosphonic acid] | 1000 to 10000 nM | ≤ 300 nM |
